Experimental data taken from ChEMBL document CHEMBL1201862, “PubChem BioAssay data set” (2004).
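Test compounds were applied to cells in 96-well plates for 48 hours at 5 doses. Abbreviation: GI50, concentration required for 50% inhibition of growth.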 Calls of active or inactive are those of the source. Cut-off read from the data, not from the text of the source: active = GI50 up to about 1.1 µM and inactive = higher.

Experiments:
Test in all cases: NCI tumour cell line growth inhibition, 48 h
786-0 = tested on: 786-0
TK-10 = tested on: TK-10
M19-MEL = tested on: M19-MEL
SK-MEL-2 = tested on: SK-MEL-2
NCI-H460 = tested on: NCI-H460
HL-60 = tested on: HL-60
SK-MEL-28 = tested on: SK-MEL-28
UACC-257 = tested on: UACC-257
DLD-1 = tested on: DLD-1
COLO 205 = tested on: COLO 205
UACC-62 = tested on: UACC-62
A549 = tested on: A549
KM12 = tested on: KM12
RPMI-8226 = tested on: RPMI-8226
SF-268 = tested on: SF-268
K562 = tested on: K562
CAKI-1 = tested on: CAKI-1
HT-29 = tested on: HT-29
NCI-H23 = tested on: NCI-H23
MOLT-4 = tested on: MOLT-4
HCC 2998 = tested on: HCC 2998
SNB-19 = tested on: SNB-19
OVCAR-3 = tested on: OVCAR-3
NCI-H522 = tested on: NCI-H522
SR = tested on: SR
RXF 393 = tested on: RXF 393
Malme-3M = tested on: Malme-3M
EKVX = tested on: EKVX
HOP-62 = tested on: HOP-62
OVCAR-4 = tested on: OVCAR-4
ACHN = tested on: ACHN
NCI-H226 = tested on: NCI-H226
CCRF-CEM = tested on: CCRF-CEM
SN12C = tested on: SN12C
SF-539 = tested on: SF-539
IGROV-1 = tested on: IGROV-1
M14 = tested on: M14
UO-31 = tested on: UO-31
SK-OV-3 = tested on: SK-OV-3
LOX IMVI = tested on: LOX IMVI
SNB-78 = tested on: SNB-78
OVCAR-8 = tested on: OVCAR-8
A498 = tested on: A498
HCT-116 = tested on: HCT-116
HCT-15 = tested on: HCT-15
SF-295 = tested on: SF-295
HOP-18 = tested on: HOP-18
OVCAR-5 = tested on: OVCAR-5
DMS-273 = tested on: DMS-273
SNB-75 = tested on: SNB-75
U-251 = tested on: U-251
HOP-92 = tested on: HOP-92
KM-20L2 = tested on: KM-20L2
XF498 = tested on: XF498
LXFL 529 = tested on: LXFL 529
SK-MEL-5 = tested on: SK-MEL-5
SW-620 = tested on: SW-620
MDA-N = tested on: MDA-N
MDA-MB-435 = tested on: MDA-MB-435
PC-3 = tested on: PC-3
T47D = tested on: T47D
MDA-MB-231 = tested on: MDA-MB-231
DU-145 = tested on: DU-145
BT-549 = tested on: BT-549
Hs-578T = tested on: Hs-578T
DMS-114 = tested on: DMS-114
NCI/ADR-RES = tested on: NCI/ADR-RES
MCF7 = tested on: MCF7

Measured: GI50

C/C(=N\NC(N)=O)c1sc(-c2nc(C)c(/C(C)=N/NC(N)=O)s2)nc1C
inactive: 786-0 > 100 µM | TK-10 > 100 µM | M19-MEL > 100 µM | SK-MEL-2 > 100 µM | NCI-H460 78.7 µM | HL-60 40 µM | SK-MEL-28 > 100 µM | UACC-257 > 100 µM | DLD-1 46.6 µM | COLO 205 53.6 µM | UACC-62 > 100 µM | A549 > 100 µM | KM12 > 100 µM | RPMI-8226 > 100 µM | SF-268 > 100 µM | K562 53.8 µM | CAKI-1 > 100 µM | HT-29 > 100 µM | NCI-H23 > 100 µM | MOLT-4 > 100 µM | HCC 2998 > 100 µM | SNB-19 > 100 µM | OVCAR-3 > 100 µM | NCI-H522 70.5 µM | SR 22.6 µM | RXF 393 > 100 µM | Malme-3M > 100 µM | EKVX 21.5 µM | HOP-62 > 100 µM | OVCAR-4 > 100 µM | ACHN > 100 µM | NCI-H226 > 100 µM | CCRF-CEM 90.4 µM | SN12C > 100 µM | SF-539 > 100 µM | IGROV-1 > 100 µM | M14 > 100 µM | UO-31 > 100 µM | SK-OV-3 > 100 µM | LOX IMVI > 100 µM | SNB-78 > 100 µM | OVCAR-8 > 100 µM | A498 > 100 µM | HCT-116 > 10 µM | SF-295 > 100 µM | HOP-18 > 100 µM | OVCAR-5 > 100 µM | DMS-273 21.1 µM | SNB-75 > 100 µM | U-251 99.3 µM | HOP-92 > 100 µM | KM-20L2 49.3 µM | XF498 > 100 µM | LXFL 529 > 100 µM | SK-MEL-5 > 100 µM
21.9 µM: HCT-15

O=C(O)CCNS(=O)(=O)c1ccc2ccccc2c1
> 100 µM: HCT-15
inactive: 786-0 > 100 µM | TK-10 > 100 µM | M19-MEL > 100 µM | SK-MEL-2 > 100 µM | NCI-H460 > 100 µM | HL-60 > 100 µM | SK-MEL-28 > 100 µM | SW-620 > 100 µM | UACC-257 > 100 µM | DLD-1 > 100 µM | COLO 205 > 100 µM | UACC-62 > 100 µM | A549 > 100 µM | KM12 > 100 µM | RPMI-8226 > 100 µM | SF-268 > 100 µM | K562 > 100 µM | CAKI-1 > 100 µM | HT-29 > 100 µM | NCI-H23 > 100 µM | MOLT-4 > 100 µM | HCC 2998 > 100 µM | SNB-19 > 100 µM | OVCAR-3 > 100 µM | NCI-H522 > 100 µM | RXF 393 > 10 µM | Malme-3M > 100 µM | EKVX > 100 µM | OVCAR-4 > 100 µM | ACHN > 100 µM | NCI-H226 > 100 µM | CCRF-CEM > 100 µM | SN12C > 100 µM | SF-539 > 100 µM | IGROV-1 > 100 µM | M14 > 100 µM | UO-31 > 100 µM | SK-OV-3 > 100 µM | LOX IMVI > 100 µM | OVCAR-8 > 100 µM | A498 > 100 µM | SF-295 > 100 µM | HOP-18 > 100 µM | OVCAR-5 > 100 µM | DMS-273 > 100 µM | SNB-75 > 100 µM | U-251 > 100 µM | HOP-92 > 100 µM | KM-20L2 > 100 µM | XF498 > 100 µM | LXFL 529 > 100 µM | SK-MEL-5 > 100 µM

NC1=NCN(C2OC(CO)C(O)C2O)C(=O)N1 (stereo not drawn)
4.5 µM: HCT-15
inactive: 786-0 4.52 µM | TK-10 11.4 µM | MDA-N 7.87 µM | M19-MEL 70.6 µM | NCI-H460 5.48 µM | MDA-MB-435 6.64 µM | PC-3 342 µM | SK-MEL-28 57.3 µM | SW-620 16.7 µM | UACC-257 49 µM | DLD-1 6.52 µM | COLO 205 131 µM | UACC-62 15.2 µM | A549 18.5 µM | KM12 14.1 µM | T47D 15 µM | RPMI-8226 1.8 µM | SF-268 15.1 µM | K562 2.28 µM | CAKI-1 69 µM | HT-29 42.3 µM | NCI-H23 > 88.3 µM | MOLT-4 5.21 µM | MDA-MB-231 38.5 µM | HCC 2998 40.4 µM | SNB-19 159 µM | OVCAR-3 38.6 µM | DU-145 148 µM | NCI-H522 5.26 µM | SR 4.49 µM | RXF 393 8.99 µM | Malme-3M 10.9 µM | EKVX 509 µM | HOP-62 152 µM | OVCAR-4 139 µM | NCI-H226 5.57 µM | CCRF-CEM 7.19 µM | SN12C 349 µM | SF-539 24.3 µM | IGROV-1 5.74 µM | M14 5.71 µM | UO-31 145 µM | SK-OV-3 126 µM | LOX IMVI 2.23 µM | BT-549 9.62 µM | SNB-78 36.9 µM | OVCAR-8 415 µM | A498 6.85 µM | HCT-116 16.6 µM | SF-295 43.4 µM | HOP-18 22.4 µM | OVCAR-5 183 µM | DMS-273 7.64 µM | Hs-578T 23.4 µM | SNB-75 22.5 µM | U-251 27.9 µM | HOP-92 391 µM | KM-20L2 14.5 µM | DMS-114 19 µM | NCI/ADR-RES 705 µM | XF498 17.5 µM | MCF7 9.84 µM | SK-MEL-5 42 µM
active: SK-MEL-2 0.977 µM | HL-60 0.838 µM | ACHN 0.802 µM

Nc1cc2[nH]cnc2c(=O)[nH]1 [DEZAGUANINE]
19.3 µM: HCT-15
inactive: 786-0 19.4 µM | TK-10 13.9 µM | MDA-N 15.5 µM | M19-MEL 181 µM | SK-MEL-2 5.96 µM | NCI-H460 10.4 µM | MDA-MB-435 14.3 µM | PC-3 9.29 µM | HL-60 6.21 µM | SK-MEL-28 40.6 µM | SW-620 17.7 µM | UACC-257 109 µM | DLD-1 13.9 µM | COLO 205 21.9 µM | UACC-62 12.9 µM | A549 24.5 µM | KM12 51.6 µM | T47D 89.1 µM | RPMI-8226 19.3 µM | SF-268 15 µM | K562 12.3 µM | CAKI-1 11 µM | HT-29 21.5 µM | NCI-H23 31.6 µM | MOLT-4 6.28 µM | MDA-MB-231 49.9 µM | HCC 2998 82.8 µM | SNB-19 > 264 µM | OVCAR-3 11 µM | DU-145 5.43 µM | NCI-H522 14.8 µM | SR 9.1 µM | RXF 393 41.7 µM | Malme-3M 47.6 µM | EKVX 56.2 µM | HOP-62 18.3 µM | OVCAR-4 20.2 µM | ACHN 8.87 µM | NCI-H226 77.1 µM | CCRF-CEM 7.93 µM | SN12C 14.6 µM | SF-539 16 µM | IGROV-1 23.1 µM | M14 45.6 µM | UO-31 32.3 µM | SK-OV-3 5.12 µM | LOX IMVI 10.5 µM | BT-549 > 123 µM | SNB-78 > 300 µM | OVCAR-8 40.2 µM | A498 63.5 µM | HCT-116 16.6 µM | SF-295 > 219 µM | HOP-18 > 121 µM | OVCAR-5 45.5 µM | DMS-273 8.26 µM | Hs-578T > 196 µM | SNB-75 90.8 µM | U-251 30.5 µM | HOP-92 77.8 µM | KM-20L2 33.7 µM | DMS-114 97.7 µM | NCI/ADR-RES 50.9 µM | XF498 5.42 µM | MCF7 21.9 µM | SK-MEL-5 63.7 µM
